From US8937067B2, “Activators of human pyruvate kinase” (The United States of America, as represented by the …, priority 2008, dated 2015)

How the values were obtained:
hPK-M2 [1] = biological target: T1, hPK-M2 (Homo sapiens, UniProt P14618); assay: Fluorescent pyruvate kinase-lactate dehydrogenase (LDH) coupled secondary assay; assay type: biochemical; details: for LDH hPK, M2 Max. Res.: % activation at 57 μM of compound; for AC50: tables, read-out: LDH hPK, M2 AC50
Description: Fluorescent Pyruvate Kinase-Lactate Dehydrogenase Coupled Secondary Assay.
Plates were immediately placed in ViewLux (Perkin Elmer) and NADH fluorescence was determined at 30 second exposure intervals for between 3 and 6 minutes. Data were normalized to the uninhibited and EC100 activation using known activators such as fructose-1,6-bis-phosphate. […] Data was collected on the Perkin Elmer Viewlux.

hPK-M2 [2] = biological target: T1, hPK-M2; assay: Luminescent pyruvate kinase-luciferase coupled assay (KinaseGlo); assay type: biochemical; details: for AC50: luminescent pyruvate kinase-luciferase coupled assay (KinaseGlo), tables, read-out: hPK, M2 AC50
Summary of the method: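 Activation assay with 0.1 mM ADP and 0.5 mM PEP in 50 mM imidazole pH 7.2, 50 mM KCl, 7 mM MgCl2, 0.01% tween 20, 0.05% BSA; 1 h at r.t. ATP produced was read by luciferase luminescence. AC50 values were normalized to DMSO (uninhibited enzyme) and no-enzyme controls.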

[3] = KinaseGlo, % activation at 57 μM of compound

T1 sequence (P14618 whole entry): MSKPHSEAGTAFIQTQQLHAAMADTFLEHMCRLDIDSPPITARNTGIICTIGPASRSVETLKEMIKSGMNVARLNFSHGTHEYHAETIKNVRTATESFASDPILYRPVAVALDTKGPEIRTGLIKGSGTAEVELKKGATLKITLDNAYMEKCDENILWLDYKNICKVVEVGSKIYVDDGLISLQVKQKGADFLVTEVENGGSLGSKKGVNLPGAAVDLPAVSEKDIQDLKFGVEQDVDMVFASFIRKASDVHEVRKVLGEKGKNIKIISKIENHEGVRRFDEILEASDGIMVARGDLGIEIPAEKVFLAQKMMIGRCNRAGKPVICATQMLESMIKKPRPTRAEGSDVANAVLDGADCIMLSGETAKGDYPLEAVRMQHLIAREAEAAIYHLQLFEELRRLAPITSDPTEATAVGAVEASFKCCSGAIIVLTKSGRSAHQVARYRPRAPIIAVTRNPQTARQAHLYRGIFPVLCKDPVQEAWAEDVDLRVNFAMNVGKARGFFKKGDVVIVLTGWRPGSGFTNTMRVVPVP

Structure (SMILES)	LDH hPK, M2 Max. Res. (hPK-M2 [1])	AC50 (hPK-M2 [1])	hPK, M2 Max. Res. (hPK-M2 [2]; [3])	AC50 (hPK-M2 [2])	activation at 57 µM (hPK-M2 [2]; KinaseGlo, % activation at 57 μM of compound, read-out: hPK, M2 Max. Res.)
Nc1cccc(S(=O)(=O)N2CCN(S(=O)(=O)c3c(F)cccc3F)CC2)c1 [Compound 137]	154.42%	206 nM	81.51%	91.9 nM	–
COc1cc(F)c(S(=O)(=O)N2CCN(S(=O)(=O)c3ccc(N)cc3)CC2)c(F)c1 [Compound 139]	166.00%	183 nM	92.46%	130 nM	–
O=S(=O)(c1cccc(O)c1)N1CCN(S(=O)(=O)c2c(F)cccc2F)CC1 [Compound 140]	148.41%	183 nM	89.61%	183 nM	–
COc1cc(F)c(S(=O)(=O)N2CCCN(S(=O)(=O)c3cccc(N)c3)CC2)c(F)c1 [Compound 141]	157.96%	146 nM	93.20%	206 nM	–
COc1cc(F)c(S(=O)(=O)N2CCCN(S(=O)(=O)c3ccc(N)cc3)CC2)c(F)c1 [Compound 143]	150.25%	1300 nM	89.36%	1300 nM	–

Next, values leading:

LDH hPK, M2 Max. Res. (hPK-M2 [1])	AC50 (hPK-M2 [1])	hPK, M2 Max. Res. (hPK-M2 [2]; [3])	AC50 (hPK-M2 [2])	activation at 57 µM (hPK-M2 [2]; KinaseGlo, % activation at 57 μM of compound, read-out: hPK, M2 Max. Res.)	Structure (SMILES)
125.28%	51.7 nM	95.08%	36.6 nM	–	COc1cc(F)c(S(=O)(=O)N2CCN(S(=O)(=O)c3cccs3)CC2)c(F)c1 [Compound 144]
106.13%	116 nM	82.49%	183 nM	–	COc1cc(F)c(S(=O)(=O)N2CCN(S(=O)(=O)c3ccco3)CC2)c(F)c1 [Compound 145]
153.98%	146 nM	–	163 nM	84%	Cc1ccc(N[S+](=O)([O-])c2ccc3c(c2)CCC(=O)N3)cc1C [Compound 150]
174.46%	366 nM	91.84%	410 nM	–	Nc1ccc(S(=O)(=O)N2CCN(S(=O)(=O)c3ccc4c(c3)OCCO4)CC2)cc1 [Compound 151]
